Measured values reported in US20080064726A1, “Pyrrolidine Derivatives” (priority 2004, published 2008).
Where two headings read alike, the source gives them in different places.

Key:
[1] = PK test in cynomolgus monkey; assay type: in vivo; details: male cynomolgus monkeys; for BA, compound measured = compound tested: oral 3 mg/kg vs intravenous 1 mg/kg, monohydrochloride
Description: Male cynomolgus monkeys of four year old (K. K. Cary; the country of origin: Vietnam) were fasted for 16 hours before administration (feed was given after 4 hours from administration), a test compound dissolved in distilled water was orally administered at a dose of 3 mg/kg and blood was collected from forearm cephalic vein after 0.25, 0.5, 1, 2, 4, 8 and 24 hours from administration of the compound. In addition, cynomolgus monkeys to which no drug was administered for 7 days after the oral administration were fasted during 16 hours before administration (feed was given after 4 hours from administration), a test compound dissolved in distilled water was administered at the dose of 1 mg/kg from forearm cephalic vein and blood was collected from the forearm cephalic vein after 0.1, 0.25, 0.5, 1, 2, 4, 8 and 24 hours from administration of the compound. For each of the administrations, three animals were used. Plasma was collected by centrifugal separation of the blood obtained by such a blood collection and concentration of the compound in the plasma was measured by LC/MS/MS (2695, Waters and TSQ Quantum, ThermoFinnigan).

[2] = biological target: T1, DPP-IV purified from pig kidney (Sus scrofa, UniProt P22411); experiment: Test for determination of DPP-IV inhibitory activity (Gly-Pro-AMC fluorescence); assay type: biochemical; details: room temperature, 60 minutes, 0.05 mM Gly-Pro-AMC
T1 construct: DPP-rIV purified from pig kidney (Sigma); purchased Sigma; host or cells: pig kidney tissue
Description: Procedure of DPP-IV activity measurement is as follows. The reaction was performed in a 96-well plate.
Reaction solutions (100 μl/well) obtained by adding a test substance at various concentrations to a solution containing 50 mM of Tris HCl, 150 mM of sodium chloride, a 0.1% triton X-100, 0.3 mU/mI of DPP-rIV purified from pig kidney (Sigma), and 0.05 mM of Gly-Pro-AMC (Bachem) were incubated at a room temperature for 60 minutes, and then fluorescence intensities (Excitation: 355 nm, Emission: 460 nm) of the reaction solutions were measured (ARVO, Perkin Elmer). The data of 3 Wells under the same conditions were averaged.
The inhibition in the test group, relative to the solvent-added group was calculated, and the IC50 value thereof was obtained through logistic analysis.

[3] = PK test in rats; assay type: in vivo; details: for BA, compound measured = compound tested / AUC(0-inf): male SD rats; for BA, compound measured = compound tested: oral 3 mg/kg vs intravenous 1 mg/kg; for AUC(0-inf): rat, oral 3 mg/kg, plasma, read-out: AUC0→∞, compound measured = compound tested
Description: Each three animals were used for each point. Plasma was collected from the blood obtained by such a blood collection and concentration of the compound in plasma was measured using LC/MS/MS (2695, Waters and TSQ Quantum, ThermoFinnigan).
On the basis of concentration of the compound in the plasma determined by the measurement, an area under curve (AUC) of the drug concentration in plasma vs. time was calculated and, from the ratio of AUC by oral administration to AUC by intravenous injection, bioavailability (BA) was calculated. With regard to the BA value by administration of the compound of the present invention, each of concentrations in plasma of the compound X and the compound of the present invention was calculated.

[4] = biological target: T2, plasma DPP-IV activity (Mus musculus, UniProt P28843); experiment: Test for DPP-IV inhibiting activity duration in mice (plasma DPP-IV activity after oral administration); assay type: in vivo; details: male ICR mice, 10 mg/kg oral
T2 construct: from tissue; host or cells: plasma of male ICR mice after oral dosing
Description: Male ICR mice (Nippon SLC) were grouped into a test group and a control group of 5 subjects each. A test compound (10 mg/kg) was dissolved in purified water, and orally administered. Purified water alone was orally administered to the mice of the control group. One half and 12 hours after the administration, the blood was collected from each mouse through the orbital venous plexus thereof. The collected blood was immediately centrifuged to isolate the plasma, and the DPP-IV activity of the plasma was measured.
The process of plasma DPP-IV activity determination was as follows: The reaction was performed in a 96-well plate. 5 μl of the collected plasma was added to an aqueous solution (95 μl/well) comprises 25 mM Tris-HCl, 140 mM sodium chloride, 10 mM potassium-chloride, 1% bovine serum albumin, and 0.01 mM Gly-Pro-AMC (Bachem), and incubated at room temperature for 20 minutes. The fluorescence intensity (excitation 355 nm/emission 460 nm) of each well was measured (ARVO, Perkin Elmer).
The fluorescent intensity of the well, to which was added the plasma collected from the control group, was 100%. Based on it, the DPP-IV activity of the plasma collected from the test compound administered mice was calculated, and the activity difference between the control group and the test group was obtained. This indicated the inhibition in the test group.

[5] = 0.5 hour, read-out: Inhibitory Rate after 0.5 Hour from Administration
[6] = 12 hours, read-out: Inhibitory Rate after 12 Hours from Administration

T2 sequence (P28843 38-760 limits assumed): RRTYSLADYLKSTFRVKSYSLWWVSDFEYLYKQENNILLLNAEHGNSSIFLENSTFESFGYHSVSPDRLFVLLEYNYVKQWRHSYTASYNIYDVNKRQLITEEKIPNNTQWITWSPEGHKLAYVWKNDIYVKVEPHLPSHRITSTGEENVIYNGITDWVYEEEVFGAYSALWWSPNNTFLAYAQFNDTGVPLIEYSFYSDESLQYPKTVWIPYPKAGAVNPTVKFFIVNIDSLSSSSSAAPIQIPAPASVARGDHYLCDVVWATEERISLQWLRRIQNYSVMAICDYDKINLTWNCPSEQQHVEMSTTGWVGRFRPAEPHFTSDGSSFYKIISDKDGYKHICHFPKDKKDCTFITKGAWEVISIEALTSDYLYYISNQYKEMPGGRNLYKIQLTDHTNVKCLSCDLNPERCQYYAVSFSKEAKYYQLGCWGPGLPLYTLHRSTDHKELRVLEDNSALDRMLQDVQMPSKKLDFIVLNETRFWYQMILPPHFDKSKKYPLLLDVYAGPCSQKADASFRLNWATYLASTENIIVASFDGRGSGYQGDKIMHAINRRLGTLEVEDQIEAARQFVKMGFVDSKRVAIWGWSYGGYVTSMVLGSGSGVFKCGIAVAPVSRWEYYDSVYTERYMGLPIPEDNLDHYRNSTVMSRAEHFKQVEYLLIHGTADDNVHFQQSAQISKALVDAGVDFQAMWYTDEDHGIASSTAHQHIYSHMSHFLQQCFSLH
T1 sequence (P22411 whole entry): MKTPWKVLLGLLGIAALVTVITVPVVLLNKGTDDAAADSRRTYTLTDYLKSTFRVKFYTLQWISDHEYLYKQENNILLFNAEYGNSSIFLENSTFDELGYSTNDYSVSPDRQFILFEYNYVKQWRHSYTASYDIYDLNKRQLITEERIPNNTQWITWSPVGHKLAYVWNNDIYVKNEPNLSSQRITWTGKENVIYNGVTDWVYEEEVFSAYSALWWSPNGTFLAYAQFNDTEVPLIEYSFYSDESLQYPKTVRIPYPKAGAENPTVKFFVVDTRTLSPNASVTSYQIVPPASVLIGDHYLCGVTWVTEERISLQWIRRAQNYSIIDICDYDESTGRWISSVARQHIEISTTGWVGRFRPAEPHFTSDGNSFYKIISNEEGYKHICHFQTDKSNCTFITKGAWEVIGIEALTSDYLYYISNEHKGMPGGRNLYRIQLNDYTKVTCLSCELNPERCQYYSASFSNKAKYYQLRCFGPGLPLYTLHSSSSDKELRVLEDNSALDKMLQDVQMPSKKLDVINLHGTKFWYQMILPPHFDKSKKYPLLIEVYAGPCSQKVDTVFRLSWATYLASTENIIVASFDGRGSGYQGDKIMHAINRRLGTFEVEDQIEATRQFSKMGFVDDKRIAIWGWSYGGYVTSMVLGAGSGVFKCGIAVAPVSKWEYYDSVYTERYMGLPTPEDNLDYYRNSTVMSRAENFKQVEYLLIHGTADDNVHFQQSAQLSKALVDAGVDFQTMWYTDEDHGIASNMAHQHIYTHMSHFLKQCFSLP

SMILES | AUC(0-inf) ([1]; cynomolgus monkey, oral 3 mg/kg, plasma, read-out: AUC0→∞, compound measured = compound tested) [ng·h/mL] | BA, compound measured = compound tested ([1]; listed as compound X) [%] | BA, compound measured = compound tested [1] [%] | IC50 [2] [µM] | BA, compound measured = compound tested [3] [%] | AUC(0-inf) [3] [ng·h/mL] | AUC0→∞, compound measured = compound tested ([1]; oral 3 mg/kg, plasma) | inhibition at 10 mg/kg [4, 5] [%] | inhibition at 10 mg/kg [4, 6] [%] | Increase of AUC (sum of tested compound and compound X in plasma) compared with AUC when compound X was administered ([3]; rats, oral administration)
CC1(NCC(=O)N2C[C@@H](F)C[C@H]2C#N)CCN(C(=O)CO)CC1.Cl [Compound X, (2S,4S)-4-fluoro-1-{[(1-glycoloyl-4-methylpiperidin-4-yl)amino]acetyl}pyrrolidine-2-carbonitrile monohydrochloride] | 278 ± 104 | 13 | 13 ± 5 | 0.015 | 16 | 138 | – | – | – | –
CC(=O)OCC(=O)N1CCC(C)(NCC(=O)N2C[C@@H](F)C[C@H]2C#N)CC1 [Example 1, 2-[4-({2-[(2S,4S)-2-cyano-4-fluoropyrrolidin-1-yl]-2-oxoethyl}amino)-4-methylpiperdin-1-yl]-2-oxoethyl acetate monofumarate] | – | – | – | 0.015 | 77 | 43 | not detected | 95 | 84 | about fourfold
COCC(=O)N1CCC(NCC(=O)N2CCC[C@H]2C#N)CC1 [Compound Y] | – | – | – | – | – | – | – | 90 | 33 | –
